Results reported in paper PMC4760428 (Angewandte Chemie (International Ed. in English), 2016).
Peptide text beside a SMILES is read from it.

Target: WT cyclophilin (Homo sapiens, UniProt P62937)
Experiment: FRET equilibrium binding to wild-type cyclophilin

Sequence of WT cyclophilin (P62937 whole entry): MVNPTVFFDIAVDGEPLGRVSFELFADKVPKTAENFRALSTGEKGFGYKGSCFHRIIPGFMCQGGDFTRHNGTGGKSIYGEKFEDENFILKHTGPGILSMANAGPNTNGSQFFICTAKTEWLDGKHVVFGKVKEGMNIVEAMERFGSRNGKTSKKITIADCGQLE

SMILES: C[C@H](NS(=O)(=O)c1cccc2c(N(C)C)cccc12)C(=O)N[C@@H](C)C(=O)N1CCC[C@H]1C(=O)N[C@@H](Cc1ccccc1)C(=O)O [WT peptide] (HELM PEPTIDE1{[CN(C)c1cccc2c(S(=O)(=O)[*:2])cccc12].A.A.P.F}$$$$V2.0)
- Kd: 164 ± 32 µM
